Results from patent US11312722B2, “Hsp90 inhibitors and uses thereof” (TRUSTEES OF BOSTON UNIVERSITY, priority 2019, dated 2022).

Columns and labels:
in vitro = conditions: both, CD-1, mouse; for half-life: microsomes
[1] = mouse liver microsomes; for % remaining at 15 min (NADPH-free): NADPH-free control; for % remaining at 15 min / % remaining at 60 min: with NADPH
C. neoformans Hsp90 NBD = C. neoformans Hsp90 NBD (Cryptococcus neoformans, UniProt J9VVA4); assay: Protein thermal shift assay, C. neoformans Hsp90 NBD; format: binding; conditions: equimolar protein and ligand (10 μM)
C. neoformans Hsp90 NBD, sequence (J9VVA4 1-699): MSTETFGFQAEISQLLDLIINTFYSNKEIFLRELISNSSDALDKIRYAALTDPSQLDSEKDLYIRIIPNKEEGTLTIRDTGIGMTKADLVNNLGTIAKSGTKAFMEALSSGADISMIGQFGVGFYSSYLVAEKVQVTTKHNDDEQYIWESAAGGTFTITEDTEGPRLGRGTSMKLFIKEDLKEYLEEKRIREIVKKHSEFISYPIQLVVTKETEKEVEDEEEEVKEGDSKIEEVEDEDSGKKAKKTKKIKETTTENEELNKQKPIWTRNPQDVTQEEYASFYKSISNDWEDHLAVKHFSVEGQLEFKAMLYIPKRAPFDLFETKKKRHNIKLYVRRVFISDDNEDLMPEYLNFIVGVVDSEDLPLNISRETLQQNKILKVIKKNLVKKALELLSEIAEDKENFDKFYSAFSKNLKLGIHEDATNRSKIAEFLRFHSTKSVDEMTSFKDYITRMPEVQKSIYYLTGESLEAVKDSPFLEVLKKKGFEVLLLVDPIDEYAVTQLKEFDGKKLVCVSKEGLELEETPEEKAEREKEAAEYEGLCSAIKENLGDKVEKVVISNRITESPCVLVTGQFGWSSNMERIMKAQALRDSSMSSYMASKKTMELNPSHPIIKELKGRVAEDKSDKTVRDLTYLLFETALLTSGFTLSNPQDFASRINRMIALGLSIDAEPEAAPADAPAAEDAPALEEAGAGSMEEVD
Method: […]. Using recombinant proteins, assay-independent nanomolar inhibitory constants (Ki) were defined for these compounds. Binding of the compounds to their relevant NBD by thermal shift denaturation assays was also confirmed. Thermal shift assays were performed under saturating ligand conditions, i.e. equimolar concentrations (10 μM) of protein and ligand. As a result, they can provide only qualitative evidence of target binding, but not a quantitative measurement of ligand affinity. […] […]. C. neoformans or C. albicans Hsp90 NBD was combined with equimolar concentrations of the indicated bioactive inhibitors (10 μM) or DMSO control, in technical triplicates. The protein was heated from 25 to 98.6° C. at 0.2° C./5 s in the presence of Sypro Orange dye. All compounds induce an increase in melting temperature relative to the DMSO control, reported as ΔTm.
Protein thermal shift assays. Thermal melting curves were determined using a Protein Thermal Shift Kit (ThermoFisher #4462263), employing a CFX384 Real-Time PCR System (Bio-Rad, C1000 Touch Thermal Cycler). Reactions were performed in a final volume of 10 μL, and contained purified C. albicans or C. neoformans Hsp90 NBD diluted to 250 μg/mL in Buffer HBS-P (GE Healthcare Life Sciences, 0.01 M HEPES pH 7.4, 0.15 M NaCl, 0.005% v/v Surfactant P20) with 10 μM synthetic analog or DMSO control, and 1× Sypro Orange dye solution. Samples were prepared in triplicate in 384-well white plates (Bio-Rad; HSP3805). The instrument was set to melt curve, step 1 (25° C., 2 min) and step 2 (ramp to 98.6° C., increasing 0.2° C. per 5 s cycle). The inflection point of each curve is defined as the protein melting temperature (Tm). Temperature shift, ΔTm, was recorded as the difference between the Tm of the fungal Hsp90 NBD with compound minus Tm of the protein without compound.

[2] = target: Hsp90 (C. neoformans whole cell lysate) (Cryptococcus neoformans, UniProt J9VVA4); format: binding; conditions: for EC50: read-out: C. neo EC50
Hsp90 (C. neoformans whole cell lysate) (Cryptococcus neoformans, UniProt J9VVA4), sequence (J9VVA4 1-699): as above
Method: (§1) All analogs were assessed for Hsp90 binding affinity using a fluorescence polarization (FP)-based equilibrium competition assay in fungal and human whole cell lysates. […] Using lysates, the relative potency and selectivity for fungal Hsp90 was measured versus the entire ensemble of human Hsp90 isoforms in microplate format using small amounts of test materials. […] Thermal shift assays were performed under saturating ligand conditions, i.e. equimolar concentrations (10 μM) of protein and ligand. As a result, they provided qualitative evidence of target binding, but not a quantitative measurement of ligand affinity. For quantitation, a ligand dissociation constant (Ki) for key compounds was also determined using purified NBDs in FP assays and KD measurements were made by surface plasmon resonance (SPR) using a Biacore instrument. Finally, all analogs were assessed for whole cell antifungal activity against the pathogens C. albicans and C. neoformans.
(§2) FP assays. Whole cell lysates were prepared for FP assays as described previously. Total protein concentration of human and yeast lysates was determined by Bradford assay. […] Serial dilutions of test Hsp90 inhibitors were then assayed under these same conditions to monitor loss of fluorescence polarization as an indicator of probe displacement from Hsp90. […] Titrations of test compound in 25 μL of binding buffer (supplemented with 0.1 mg/mL bovine gamma globulin), were mixed with an equal volume of freshly prepared whole-cell lysate spiked with Cy3-GdA (0.1 nM). Plates were incubated at room temperature for 4.5 h to achieve equilibrium binding for the geldanamycin-based probe. […] Non-linear 4-parameter curve fitting of raw displacement data was performed in GraphPad Prism 5.0 to determine EC50 values as a measure of relative Hsp90-binding affinity. Results were normalized to the value determined for GdA in lysate of each cell type.
(§3) Statistical methods. […] In calculating the error of selectivity determinations, the fractional error of measurements in each species was summed to yield a composite error for the derived ratio.

[3] = system: C. neoformans (Strain H99); assay: Antifungal sensitivity testing (MIC), C. neoformans H99; format: cell-based; conditions: for MIC80 / MIC90: Cryptococcus neoformans; for MIC80: read-out: C. neo MIC80; for MIC90: read-out: C. neo MIC90
Method: Color scale bar: no growth inhibition (green) to complete inhibition (black). Each shaded box represents the mean of technical duplicates. The experiment was repeated as an independent biological replicate to confirm results.
Minimum inhibitory concentration (MIC) value for compounds against C. neoformans (Strain H99) was determined in dose-response format, in technical duplicate. Experiments were conducted in RPMI medium at 37° C. for 48 h. Relative viable cell number was measured by standard dye reduction (resazurin) assay.
Yeast strains and culture conditions. Strains used in this study were C. albicans CaCi2 (clinical isolate 2), [58] SC5314, [59] and C. neoformans H99. […] Active cultures were maintained on solid (2% agar) yeast extract peptone (YPD, 1% yeast extract, 2% bactopeptone, 2% glucose) at 4° C. for no more than one month.
Antifungal sensitivity testing. […] Each compound was tested in duplicate in at least two independent experiments. […] Plates were photographed after 24 h of incubation at 30° C.

[4] = target: Hsp90 (C. albicans whole cell lysate) (Candida albicans (strain SC5314 / ATCC MYA-2876) (Yeast), UniProt P46598); assay: biochemical; format: binding; conditions: for C. alb Active (biochemical): Yes/No call; for EC50: read-out: C. alb EC50
Method: as §1, §2, §3

[5] = system: Hsp90 (C. neoformans whole cell lysate); format: binding; conditions: C. neo FS calculated using EC50
Method: as §1, §2, §3

[6] = system: Hsp90 (C. albicans whole cell lysate); assay: biochemical; format: binding; conditions: for C. alb Selective: Yes/No call
Method: as §1, §2, §3

SMILES	CLint scaled at 1 μM (in vitro; liver microsomes)	% remaining at 15 min (NADPH-free) [1]	% remaining at 15 min [1]	% remaining at 60 min [1]	MIC80 [3]	MIC90 [3]	C. alb Active (biochemical) [4]	C. neo Selectivity (FS) [5]	EC50 [2]	EC50 [4]	C. alb Selectivity (FS) [6]	C. alb Selective [6]	other results
Cn1nc(C2CCCCC2)cc1Nc1cc(O)cc(O)c1C(=O)N1Cc2cn[nH]c2C1 [Compound 105, 5-((3-Cyclohexyl-1-methyl-1H-pyrazol-5-yl)amino)-4-(1H,4H,5H,6H-pyrrolo[3,4-c]pyrazole-5-carbonyl)benzene-1,3-diol]	1990 mL/min/kg	103.6%	2.3%	0%	–	–	–	–	–	–	–	–	half-life at 1 μM (in vitro; liver microsomes): 2.7 min
COc1ccc(Cn2nc(C(C)(C)C)cc2Nc2cc(O)cc(O)c2C(=O)N2Cc3ccccc3C2)cc1 [Compound 49, (2-((3-(tert-Butyl)-1-(4-methoxybenzyl)-1H-pyrazol-5-yl)amino)-4,6-dihydroxyphenyl)(isoindolin-2-yl)methanone]	–	–	–	–	–	–	–	–	–	–	–	–	C. neoformans NBD ΔTm (C. neoformans Hsp90 NBD): 14 °C
COc1ccc(Cn2nc(-c3ccccc3)cc2Nc2cc(O)cc(O)c2C(=O)N2Cc3cccc(F)c3C2)cc1 [Compound 27, 4-(4-Fluoro-2,3-dihydro-1H-isoindole-2-carbonyl)-5-((1-((4-methoxyphenyl)methyl)-3-phenyl-1H-pyrazol-5-yl)amino)benzene-1,3-diol]	–	–	–	–	–	–	–	–	–	–	–	–	C. neoformans NBD ΔTm (C. neoformans Hsp90 NBD): 12 °C
Cn1nc(-c2ccc(C(C)(C)C)cc2)cc1Nc1cc(O)cc(O)c1C(=O)N1Cc2cn[nH]c2C1 [Compound 129, 5-((3-(4-tert-Butylphenyl)-1-methyl-1H-pyrazol-5-yl)amino)-4-(1H,4H,5H,6H-pyrrolo[3,4-c]pyrazole-5-carbonyl)benzene-1,3-diol]	847 mL/min/kg	97.9%	21.1%	0.5%	> 25 µM	> 25 µM	–	–	–	–	–	–	C. neo Active (biochemical) ([2]; Yes/No call): Yes; half-life (in vitro): 6.4 min; C. neo Active (cells) ([3]; Yes/No call): No
CC(C)c1cc(Nc2cc(O)cc(O)c2C(=O)N2Cc3ccccc3C2)n(C)n1 [Compound 100, 4-(2,3-Dihydro-1H-isoindole-2-carbonyl)-5-((1-methyl-3-(propan-2-yl)-1H-pyrazol-5-yl)amino)benzene-1,3-diol]	–	–	–	–	–	–	–	–	–	–	–	–	C. neoformans NBD ΔTm (C. neoformans Hsp90 NBD): 11 °C
Cc1cccc(-c2cc(Nc3cc(O)cc(O)c3C(=O)N3Cc4cn[nH]c4C3)n(C)n2)c1 [Compound 111, 5-((1-Methyl-3-(3-methylphenyl)-1H-pyrazol-5-yl)amino)-4-(1H,4H,5H,6H-pyrrolo[3,4-c]pyrazole-5-carbonyl)benzene-1,3-diol]	582 mL/min/kg	115.3%	20.2%	1.8%	> 25 µM	> 25 µM	Yes	–	–	–	–	–	half-life (in vitro): 9.4 min
CC(C)c1ccc(Cn2nccc2Nc2cc(O)cc(O)c2C(=O)N2Cc3ccccc3C2)cc1 [Compound 83, (2,4-Dihydroxy-6-((1-(4-isopropylbenzyl)-1H-pyrazol-5-yl)amino)phenyl)(isoindolin-2-yl)methanone]	1770 mL/min/kg	109.1%	3.4%	1.8%	> 25 µM	> 25 µM	Yes	–	–	–	–	–	half-life (in vitro): 3.1 min
COc1ccccc1-n1nc(C)c(Nc2cc(O)cc(O)c2C(=O)N2Cc3ccccc3C2)c1C [ACSM01493, (2,4-Dihydroxy-6-((1-(2-methoxyphenyl)-3,5-dimethyl-1H-pyrazol-4-yl)amino)phenyl)(isoindolin-2-yl)methanone]	–	–	–	–	> 25 µM	> 25 µM	Yes	7.2	191 nM	1060 nM	1.2	No	–
COc1cccc(-c2cc(Nc3cc(O)cc(O)c3C(=O)N3Cc4ccncc4C3)n(C)n2)c1 [ACSM01492]	–	–	–	–	–	–	Yes	46.2	258 nM	10600 nM	1.1	No	C. neo MIC80 [3]: >25 µM; C. neo MIC90 [3]: >25 µM
Cc1nn(-c2cccc(C(F)(F)F)c2)c(C)c1Nc1cc(O)cc(O)c1C(=O)N1Cc2ccccc2C1 [ACSM01494, (2-((3,5-Dimethyl-1-(3-(trifluoromethyl)phenyl)-1H-pyrazol-4-yl)amino)-4,6-dihydroxyphenyl)(isoindolin-2-yl)methanone]	–	–	–	–	> 25 µM	> 25 µM	Yes	97.7	30 nM	1590 nM	1.8	No	–
Cn1nccc1Nc1cc(O)cc(O)c1C(=O)N1CC2CC2C1 (stereo not drawn) [ACSM01301]	–	–	–	–	–	–	No	5	2400 nM	> 10000 nM	–	No	C. neo MIC80 [3]: >25 µM; C. neo MIC90 [3]: >25 µM
Cn1nc(-c2ccccc2C(F)(F)F)cc1Nc1cc(O)cc(O)c1C(=O)N1Cc2ccncc2C1 [ACSM01491]	–	–	–	–	–	–	Yes	62.2	47 nM	724 nM	3.9	No	C. neo MIC80 [3]: >25 µM; C. neo MIC90 [3]: >25 µM
